From patent US6034066A, “Cysteine protease inhibitors for use in treatment of IGE mediated allergic diseases” (Peptide Therapeutics Limited, priority 1995, dated 2000)

Target: T1, Der p I (Dermatophagoides pteronyssinus, UniProt P08176)
T1 construct: tissue SmithKline-Beecham (crude mite extract); host or cells: house dust mite extract, purified on immobilised anti-Der p I antibody 4C1
T1 sequence (P08176 99-320): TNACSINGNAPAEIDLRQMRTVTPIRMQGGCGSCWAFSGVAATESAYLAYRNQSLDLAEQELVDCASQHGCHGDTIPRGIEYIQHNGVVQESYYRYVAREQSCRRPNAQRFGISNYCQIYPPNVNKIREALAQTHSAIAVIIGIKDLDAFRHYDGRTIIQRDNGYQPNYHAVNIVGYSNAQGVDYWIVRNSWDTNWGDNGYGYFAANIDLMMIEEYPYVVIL
Experiment: Cleavage of membrane CD23 on RPMI 8866 B cells by Der p I, FACS with FITC anti-CD23 (Bu38)
Format: cell-based
Details: Der p I pre-incubated 30 min at 37° C. with inhibitor, then added to RPMI 8866 cells; FIG. 1(c)
Text: We have affinity purified Der p I from dust mite extract and tested its ability to proteolytically cleave CD23 expressed on cultured RPMI 8866 B cells, using FITC labelled monoclonal anti-human CD23 (Bu38). […] The proteolytic activity of Der p I was inhibited by E64 (a cysteine protease inhibitor), but not by alpha-1-antitrypsin (a serine protease inhibitor), thereby confirming the cysteine protease nature of Der p I (FIG. 1c). […] A more detailed description of FIG. 1 is as follows:
Cells were analysed on a FACScan (Becton Dickinson, Oxford, UK) with a linear fluorescence setting of 660 volts. The fluorescence (FL1) profile versus forward scatter (FSC) was used to monitor the cells, the amplification scale was altered according to the level of fluorescence. For each sample 4000 events were collected and then analysed using the flowMATE programme (DAKO, High Wycombe, UK). Data presented are representative of 3 replicate experiments, each point in a to c represents the mean of duplicate determinations, FIG. 1(a). Dose and cysteine dependency of CD23 cleavage by Der p I (for method of purification see FIG. 1(d) below). Der p I was pre-incubated (15 min at 37° C.) with or without 5 mM cysteine and added to 2-3×10^5 RPMI 8866 cells in a total volume of […] RPMI 1640+10 mM HEPES. […]

Row | Compound | inhibition of membrane CD23 cleavage by Der p I
1 | CC(C)C[C@H](NC(=O)[C@H]1O[C@@H]1C(=O)O)C(=O)NCCCCN=C(N)N (relative stereo) [Compound E64, L-trans-epoxysuccinyl-leucylamido (4-guanidino) butane, reference compound] | completely inhibits
2 | alpha-1-antitrypsin: a naturally occurring human serine protease inhibitor | no such inhibitory effect
